Reference: US12194003B2, “Compositions for treating acne and dermatological conditions” (priority 2020, dated 2025)
Several values for one entry are separate records, joined by “and”; a condition that tells them apart may be missing. Equal entries are not always repeated. Where two headings read alike, the source gives them in different places.

What was measured:
[1] = tested on: Primary human sebocytes; assay: Sebocyte ATP metabolism luminescence assay (Celltiter-Glo), percent luminescence reduction; assay type: cell-based; conditions: for % Luminescence Reduction (Repeat 1, 2, 3): niacinamide 0 μM
Experimental: The ability of various combinations of ingredients to increase ATP metabolism is evaluated via a sebocyte assay according to the following protocol. Immortalized human sebaceous gland cell lines (sebocytes) are a well-established model for studying acne. Primary human sebocytes Batch #13140680) were obtained from Celprogen™ and grown according to manufacturer's instructions. The cells were seeded at a concentration of 5000 cells per cm^2 in a tissue culture treated flask and incubated at 37° C. in a humidified incubator in the presence of 5% CO2 (all subsequent incubations were subject to these conditions). At 60-80% confluency, cells were passaged by detaching cells using TrypLE™ Express (Sigma). Cells were seeded in a black 96-well half area plate at a concentration of 5000 cells per well and allowed to equilibrate overnight at 37° C.
[…] Various concentrations of CBD (0 μM, 1 μM, 3 μM, 10 μM, 30 μM), niacinamide (0 μM, 4 μM, 10 μM, 20 μM, 40 μM), and urolithin A (0 μM, 3 μM, 10 μM, 30 μM, 100 μM) were evaluated in triplicate. The ability of each composition to increase ATP metabolism was determined using a luminescence assay (Celltiter-Glo™) according to manufacturer's instructions.
Table 11 reports the percent luminescence reductions for cells treated with each composition compared to cells that are not administered a composition of the disclosure. This value is calculated using the formula: (1−(treatment luminescence/control luminescence))*100. The luminescence measurements in this assay are proportional to the number of metabolically active cells in a sample. Cells that are metabolically active (e.g., have functioning mitochondria) consume ATP and convert luciferin to oxyluciferin.

[2] = tested on: sebocyte; assay: Sebocyte cell viability / cell death; assay type: cell-based, human; conditions: L-ergothioneine 1 nM to 100 μM; FIG. 6
Experimental: Sebocytes were incubated with compositions comprising CBD, niacinamide, urolithin A, or combination thereof. Various concentrations of CBD (0 μM, 1 μM, 3 μM, 10 μM, 30 μM), niacinamide (0 μM, 4 μM, 10 μM, 20 μM, 40 μM), and urolithin A (0 μM, 3 μM, 10 μM, 30 μM, 100 μM) were evaluated in triplicate. The ability of each composition to increase ATP metabolism was determined using a luminescence assay (Celltiter-Glo™) according to manufacturer's instructions.
These assays also tested the ability of the antioxidant L-ergothioneine at concentrations ranging from 1 nM to 100 μM to affect skin cell viability and influence mitochondrial function.

Structure (SMILES): NC(=O)c1cccnc1 [Niacinamide, niacinamide]
- Luminescence Reduction of Niacinamide Alone [1]: 3.0
- Luminescence Reduction of Niacinamide Alone ([1]; Niacinamide 4.0 μM): 3.0%
- Luminescence Reduction of Niacinamide Alone ([1]; Niacinamide 10.0 μM): 35.0%
- Luminescence Reduction of Niacinamide Alone ([1]; Niacinamide 20.0 μM): 52.0%
- Luminescence Reduction of Niacinamide Alone ([1]; Niacinamide 40.0 μM): 90.7%
- Luminescence Reduction of Niacinamide Alone ([1]; niacinamide 4.0 μM): 3.0
- Luminescence Reduction of Niacinamide Alone ([1]; niacinamide 10.0 μM): 35.0
- Luminescence Reduction of Niacinamide Alone ([1]; niacinamide 20.0 μM): 52.0
- Luminescence Reduction of Niacinamide Alone ([1]; niacinamide 40.0 μM): 90.7

Structure (SMILES): C[N+](C)(C)[C@@H](Cc1c[nH]c(=S)[nH]1)C(=O)[O-] [L-ergothioneine]
- ATP metabolism ([1]; L-ergothioneine 1 nM to 100 μM, FIG. 6): retain viability and ATP metabolism
- cell viability [2]: retain viability

Structure (SMILES): C=C(C)[C@@H]1CCC(C)=C[C@H]1c1c(O)cc(CCCCC)cc1O [CBD, cannabidiol]
- % Luminescence Reduction (Repeat 1, 2, 3) ([1]; CBD 1 μM, urolithin A 0 μM): 5% and 9%

Structure (SMILES): O=c1oc2cc(O)ccc2c2ccc(O)cc12 [Urolithin A, 3,8-dihydroxybenzo[c]chromen-6-one]
- Luminescence Reduction of Urolithin A Alone ([1]; 30 µM): 16.7%
- % Luminescence Reduction (Repeat 1, 2, 3) ([1]; CBD 0 μM, urolithin A 30 μM): 15% and 17% and 18%
- % Luminescence Reduction (Repeat 1, 2, 3) ([1]; CBD 0 μM, urolithin A 100 μM): 25% and 35% and 27%
- Luminescence Reduction of Urolithin A Alone ([1]; Urolithin A 3.0 μM): 18.7%
- Luminescence Reduction of Urolithin A Alone ([1]; Urolithin A 10.0 μM): 13.3%
- Luminescence Reduction of Urolithin A Alone ([1]; Urolithin A 100.0 μM): 29.0%
